PMC6517818, “The yeast mitochondrial pyruvate carrier is a hetero‐dimer in its functional state” (The EMBO Journal, 2019)
Like-named read-outs stand apart in the source and are kept apart here.

B1: Mpc1 (Mpc1/Mpc3 hetero-dimer, mitochondrial pyruvate carrier) (Saccharomyces cerevisiae S288C) (protein)
chain 1: MSQPVQRAAARSFLQKYINKETLKYIFTTHFWGPVSNFGIPIAAIYDLKKDPTLISGPMTFALVTYSGVFMKYALSVSPKNYLLFGCHLINETAQLAQGYRFLKYTYFTTDEEKKALDKEWKEKEKTGKQ
chain 2: KTVHFWAPTLKWGLVFAGLNDIKRPVEKVSGAQNLSLLATALIWTRWSFVIKPKNYLLASVNFFLGCTAGYHLTRIANFRIRNGDSFKQVIHYIIKGETPAAVAAKQTASTSMNKGVIGTNPPITH
notes: Mpc1/Mpc3 hetero-complex, untagged Mpc1 co-expressed with C-terminally tagged Mpc3, reconstituted in liposomes; with Mpc3 (P53311)
B2: Mpc1 (untagged), mitochondrial pyruvate carrier protein 1 from Saccharomyces cerevisiae (natural protein, S. cerevisiae, UniProt P53157 1-130, looked up)
chain: B1 chain 1
notes: Mpc1, S. cerevisiae, UniProt P53157; codon-optimised synthetic gene; theoretical mass 15 kDa; also called unmodified Mpc1; source: S. cerevisiae mitochondria (SHY15 or W303-1B), co-expressed from pBEVY-GU with histidine-tagged Mpc3 or Mpc2; co-purified on nickel Sepharose in LMNG and tetraoleoyl cardiolipin
B3: Mpc3 after nickel-affinity purification and Factor Xa cleavage of the histidine tag (natural protein, S. cerevisiae, UniProt P53311 1-146, looked up)
chain: MSASAFNFAFRRFWNSETGPKTVHFWAPTLKWGLVFAGLNDIKRPVEKVSGAQNLSLLATALIWTRWSFVIKPKNYLLASVNFFLGCTAGYHLTRIANFRIRNGDSFKQVIHYIIKGETPAAVAAKQTASTSMNKGVIGTNPPITH
notes: Mpc3, S. cerevisiae, UniProt P53311; codon-optimised synthetic gene; theoretical mass 17.1 kDa; Same construct as m2 after tag removal; The residues IEGR of the Factor Xa site probably remain at the C-terminus after cleavage (surmised); source: S. cerevisiae mitochondria (with Mpc1: W303-1B or SHY15; alone: SHY15), purified (nickel Sepharose, on-column Factor Xa cleavage) in LMNG and tetraoleoyl …

How the values were obtained:
[1] = biological target: T1, Mpc1 (Mpc1/Mpc3 hetero-dimer, mitochondrial pyruvate carrier) (Saccharomyces cerevisiae, UniProt P53157+P53311); assay: […]-pyruvate homo-exchange inhibition in proteoliposomes; assay type: biochemical
T1 construct: Mpc1/Mpc3 hetero-complex, untagged Mpc1 co-expressed with C-terminally tagged Mpc3, reconstituted in liposomes; with Mpc3 (P53311)
T1 sequence (P53157 1-130): B1 chain 1
T1 sequence (P53311 21-146): B1 chain 2

[2] = biological target: T2, Mpc2 (Mpc1/Mpc2 hetero-complex, MPCFERM) (Saccharomyces cerevisiae, UniProt P38857+P53157); assay: time course of pyruvate homo-exchange in proteoliposomes at ΔpH […]; assay type: biochemical
T2 construct: Mpc1/Mpc2 hetero-complex with C-terminally tagged Mpc2, reconstituted in liposomes; with Mpc1 (P53157)
T2 sequence (P38857 1-129): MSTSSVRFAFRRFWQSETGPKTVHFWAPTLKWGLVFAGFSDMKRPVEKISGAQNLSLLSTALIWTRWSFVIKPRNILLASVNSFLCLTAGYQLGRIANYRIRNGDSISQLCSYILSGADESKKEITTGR
T2 sequence (P53157 1-130): B1 chain 1

purified protein = substrate: CC(=O)C(=O)O; assay: purified protein; assay type: biochemical, Saccharomyces cerevisiae
[3] = biological target: T3, Mpc3 with a C-terminal Factor Xa cleavage site and octa-histidine tag (S. cerevisiae, UniProt P53311 1-146); assay: pull-down; nickel-affinity co-purification: untagged Mpc1 co-expressed with His8-tagged partner in yeast mitochondria; solubilised in 1% LMNG, 20 mM Tris-HCl pH 7.4, 150 mM NaCl, 4 °C; bound to nickel Sepharose, washed with 40 mM imidazole, 0.1% LMNG, 0.1 mg/ml TOCL; released by on-column Factor Xa cleavage; SDS-PAGE with Coomassie stain and peptide mass fingerprinting; Mpc1/Mpc3 also purified in Triton X-100, DMNG …; conditions: partners not purified
T3 construct: Mpc3, S. cerevisiae, UniProt P53311; codon-optimised synthetic gene; This is the tagged form as captured on the nickel resin; The complex was then released by on-column Factor Xa cleavage; also called Mpc3his; histidine-tagged Mpc3; source: S. cerevisiae mitochondria (SHY15 or W303-1B), co-expressed from pBEVY-GU with untagged Mpc1; LMNG-solubilised mitochondria, captured on nickel …
T3 sequence (looked up): B3 chain

[4] = biological target: B3; assay: SEC-MALS; SEC-MALLS, Superdex 200 10/300 GL; 20 mM Tris-HCl pH 7.4, 150 mM NaCl, 0.005% LMNG, 0.005 mg/ml TOCL; nickel-affinity-purified Mpc1/Mpc3 complex or Mpc3 alone injected; protein-conjugate method; conditions: both partners purified
[5] = biological target: the molecule itself; assay: as above

## N#C/C(=C\c1cn(-c2ccccc2)c2ccccc12)C(=O)O [UK5099]
[1]; read-out: IC50
  IC50: 9 ± 7 µM

## O=C(O)c1nn(Cc2ccc(Cl)cc2Cl)c2ccccc12 [lonidamine]
[1]
  IC50: 118 ± 24 µM

## CC(=O)C(=O)O [pyruvate]
[2]
  time course of pyruvate homo-exchange in proteoliposomes at ΔpH 1.6: the Mpc1/Mpc2 hetero‐complex was also active for ΔpH‐dependent pyruvate transport (Fig EV4D)

## CN(Cc1ccccc1)c1ccc2cc(C(=O)O)c(=O)oc2c1 [7ACC2]
[1]; read-out: IC50
  IC50: 27 ± 13 µM

## B1
Purified protein
  Km: 342 ± 58 µM

## B2
[3]
  stoichiometry N: 1 Mpc1:Mpc3
[4]
  stoichiometry N: 1 Mpc1:Mpc3

## B3
[5]
  stoichiometry N: 2
